Laboratory results taken from patent US20070004660A1, “Synergistic Modulation of Flt3 Kinase Using Alkylquinolines and Alkylquinazolines” (priority 2005, published 2007).

Target: T1, wild-type FLT3 receptor (Homo sapiens, UniProt P36888)
T1 construct: host or cells: Baf3 (murine B cell lymphoma line), stably transfected
T1 sequence (P36888 27-993): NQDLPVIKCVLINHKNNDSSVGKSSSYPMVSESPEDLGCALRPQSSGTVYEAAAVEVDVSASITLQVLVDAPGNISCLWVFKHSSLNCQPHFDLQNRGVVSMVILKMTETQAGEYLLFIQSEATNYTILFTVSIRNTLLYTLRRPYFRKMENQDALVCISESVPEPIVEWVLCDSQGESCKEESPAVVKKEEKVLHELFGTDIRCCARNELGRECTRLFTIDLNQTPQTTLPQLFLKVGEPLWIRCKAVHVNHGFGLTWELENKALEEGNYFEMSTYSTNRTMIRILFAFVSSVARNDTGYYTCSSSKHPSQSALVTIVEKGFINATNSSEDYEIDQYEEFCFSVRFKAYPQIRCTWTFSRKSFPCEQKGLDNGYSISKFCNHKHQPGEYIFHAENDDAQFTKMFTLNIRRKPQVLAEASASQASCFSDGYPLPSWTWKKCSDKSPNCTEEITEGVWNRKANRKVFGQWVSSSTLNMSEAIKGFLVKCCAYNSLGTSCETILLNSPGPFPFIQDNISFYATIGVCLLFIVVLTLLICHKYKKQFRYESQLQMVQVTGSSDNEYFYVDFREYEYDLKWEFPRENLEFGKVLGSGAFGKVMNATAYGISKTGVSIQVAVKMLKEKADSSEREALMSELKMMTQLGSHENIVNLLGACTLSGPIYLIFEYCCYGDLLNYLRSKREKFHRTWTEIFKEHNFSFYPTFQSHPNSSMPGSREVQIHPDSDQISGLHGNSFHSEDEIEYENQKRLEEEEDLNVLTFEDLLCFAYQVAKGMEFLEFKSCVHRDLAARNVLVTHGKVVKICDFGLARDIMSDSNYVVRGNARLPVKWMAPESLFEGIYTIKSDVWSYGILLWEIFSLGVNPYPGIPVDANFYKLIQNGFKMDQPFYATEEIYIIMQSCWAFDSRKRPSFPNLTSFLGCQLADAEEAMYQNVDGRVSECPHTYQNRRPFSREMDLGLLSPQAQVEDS
Assay: Cell-based FLT3 receptor ELISA (FLT ligand-induced phosphorylation in Baf3 FLT3 cells)
Details: 100 ng/mL Flt ligand, uncertainty ±20%
In short: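 Receptor phosphotyrosine measured by sandwich ELISA (anti-FLT3 capture, HRP anti-pTyr, luminescence) in FLT3-transfected murine Baf3 cells given 1 h compound pretreatment and 10 min 100 ng/mL FLT ligand after overnight low-serum starvation; triplicates, IC50 from nonlinear regression.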

| SMILES | IC50 |
| --- | --- |
| COc1cc2ncnc(C3CCN(C(=O)Nc4ccc(-c5cncnc5)cc4)CC3)c2cc1OC [Example 58, 4-(6,7-Dimethoxy-quinazolin-4-yl)-piperidine-1-carboxylic acid (4-pyrimidin-5-yl-phenyl)-amide] | 265 nM |
| CC(C)Oc1ccc(NC(=O)N2CCC(c3ncnc4ccc(OCCCN5CCCC5=O)cc34)CC2)cc1 [Example 101, 4-{6-[3-(2-Oxo-pyrrolidin-1-yl)-propoxy]-quinazolin-4-yl}-piperidine-1-carboxylic acid (4-isopropoxy-phenyl)-amide] | 42 nM |
| O=C(Nc1ccc(N2CCCC2)nc1)N1CCC(c2ncnc3cc(OCCN4CCOCC4)ccc23)CC1 [Example 95, 4-[7-(2-Morpholin-4-yl-ethoxy)-quinazolin-4-yl]-piperidine-1-carboxylic acid (6-pyrrolidin-1-yl-pyridin-3-yl)-amide] | 25 nM |
| CCCCc1ccc(NC(=O)N2CCC(c3ncnc4cc(OC)c(OC)cc34)CC2)cc1 [Example 43, 4-(6,7-Dimethoxy-quinazolin-4-yl)-piperidine-1-carboxylic acid (4-butyl-phenyl)-amide] | 59 nM |
| O=C1CCCN1CCOc1ccc2c(C3CCN(C(=O)Nc4ccc(N5CCOCC5)cc4)CC3)ncnc2c1 [Example 85, 4-{7-[2-(2-Oxo-pyrrolidin-1-yl)-ethoxy]-quinazolin-4-yl}-piperidine-1-carboxylic acid (4-morpholin-4-yl-phenyl)-amide] | 75 nM |
| CC(=O)N1CCN(CCOc2ccc3c(C4CCN(C(=O)Nc5ccc(N6CCOCC6)cc5)CC4)ncnc3c2)CC1 [Example 97, 4-{7-[2-(4-Acetyl-piperazin-1-yl)-ethoxy]-quinazolin-4-yl}-piperidine-1-carboxylic acid (4-morpholin-4-yl-phenyl)-amide] | 36 nM |
| CC(C)c1ccc(NC(=O)N2CCC(c3ncnc4ccccc34)CC2)cc1 [Example 7, 4-Quinazolin-4-yl-piperidine-1-carboxylic acid (4-isopropyl-phenyl)-amide] | 367 nM |
| O=C1CCCN1CCCOc1ccc2c(C3CCN(C(=O)Nc4cnc(N5CCCC5)nc4)CC3)ncnc2c1 [Example 90, 4-{7-[3-(2-Oxo-pyrrolidin-1-yl)-propoxy]-quinazolin-4-yl}-piperidine-1-carboxylic acid (2-pyrrolidin-1-yl-pyrimidin-5-yl)-amide] | 279 nM |
| O=C(Nc1ccc(N2CCOCC2)cc1)N1CCC(c2ncnc3cc(OCCCO)ccc23)CC1 [Example 77, 4-[7-(3-Hydroxy-propoxy)-quinazolin-4-yl]-piperidine-1-carboxylic acid (4-morpholin-4-yl-phenyl)-amide] | 98 nM |
| COc1cc2ncnc(C3CCN(C(=O)Nc4ccc(-c5ccco5)cc4)CC3)c2cc1OC [Example 59, 4-(6,7-Dimethoxy-quinazolin-4-yl)-piperidine-1-carboxylic acid (4-furan-2-yl-phenyl)-amide] | 27 nM |
| COc1cc2ncnc(C3CCN(CC(=O)Nc4ccc(OC(C)C)cc4)CC3)c2cc1OC [Example 10, 2-[4-(6,7-Dimethoxy-quinazolin-4-yl)-piperidin-1-yl]-N-(4-isopropoxy-phenyl)-acetamide] | 31 nM |
| CC(C)Oc1ccc(NC(=O)N2CCC(c3ccnc4ccccc34)CC2)cc1 [Example 6, 4-Quinolin-4-yl-piperidine-1-carboxylic acid (4-isopropoxy-phenyl)-amide] | 40 nM |
| O=C1CCCN1CCCOc1ccc2c(C3CCN(C(=O)Nc4ccc(N5CCOCC5)cc4)CC3)ncnc2c1 [Example 68, 4-{7-[3-(2-Oxo-pyrrolidin-1-yl)-propoxy]-quinazolin-4-yl}-piperidine-1-carboxylic acid (4-morpholin-4-yl-phenyl)-amide] | 29 nM |
| CN1CCC(COc2ccc3c(C4CCN(C(=O)Nc5ccc(N6CCOCC6)cc5)CC4)ncnc3c2)CC1 [Example 94, 4-[7-(1-Methyl-piperidin-4-ylmethoxy)-quinazolin-4-yl]-piperidine-1-carboxylic acid (4-morpholin-4-yl-phenyl)-amide] | 11 nM |
| CN1CCN(CCCOc2ccc3c(C4CCN(C(=O)Nc5ccc(N6CCOCC6)nc5)CC4)ncnc3c2)CC1 [Example 80, 4-{7-[3-(4-Methyl-piperazin-1-yl)-propoxy]-quinazolin-4-yl}-piperidine-1-carboxylic acid (6-morpholin-4-yl-pyridin-3-yl)-amide] | 19 nM |
| COc1cc2ncnc(C3CCN(C(=O)Nc4ccc(OC5CCCC5)nc4)CC3)c2cc1OC [Example 69, 4-(6,7-Dimethoxy-quinazolin-4-yl)-piperidine-1-carboxylic acid (6-cyclopentyloxy-pyridin-3-yl)-amide] | 29 nM |

Further lines, results first:

| IC50 | SMILES |
| --- | --- |
| 16 nM | CN1CCN(CCCOc2ccc3c(C4CCN(C(=O)Nc5ccc(N6CCCC6)nc5)CC4)ncnc3c2)CC1 [Example 104, 4-{7-[3-(4-Methyl-piperazin-1-yl)-propoxy]-quinazolin-4-yl}-piperidine-1-carboxylic acid (6-pyrrolidin-1-yl-pyridin-3-yl)-amide] |
| 10 nM | CS(=O)(=O)N1CCN(CCCOc2ccc3c(C4CCN(C(=O)Nc5ccc(N6CCOCC6)cc5)CC4)ncnc3c2)CC1 [Example 118, 4-{7-[3-(4-Methanesulfonyl-piperazin-1-yl)-propoxy]-quinazolin-4-yl}-piperidine-1-carboxylic acid (4-morpholin-4-yl-phenyl)-amide] |
| 23 nM | CN(C)C(=O)N1CCN(CCCOc2ccc3c(C4CCN(C(=O)Nc5ccc(N6CCOCC6)cc5)CC4)ncnc3c2)CC1 [Example 120, 4-(3-{4-[1-(4-Morpholin-4-yl-phenylcarbamoyl)-piperidin-4-yl]-quinazolin-7-yloxy}-propyl)-piperazine-1-carboxylic acid dimethylamide] |
| 5 nM | CC(C)Oc1ccc(NC(=O)N2CCC(c3ncnc4cc(NCCCN5CCN(C)CC5)ccc34)CC2)cc1 [Example 102, 4-{7-[3-(4-Methyl-piperazin-1-yl)-propylamino]-quinazolin-4-yl}-piperidine-1-carboxylic acid (4-isopropoxy-phenyl)-amide] |
| 79 nM | O=C(NCCCOc1ccc2c(C3CCN(C(=O)Nc4ccc(N5CCCC5)nc4)CC3)ncnc2c1)N1CCOCC1 [Example 112, Morpholine-4-carboxylic acid (3-{4-[1-(6-pyrrolidin-1-yl-pyridin-3-ylcarbamoyl)-piperidin-4-yl]-quinazolin-7-yloxy}-propyl)-amide] |
| 66 nM | CN1CCCN(CCCOc2ccc3c(C4CCN(C(=O)Nc5ccc(N6CCOCC6)cc5)CC4)ncnc3c2)CC1 [Example 125, 4-{7-[3-(4-Methyl-[1,4]diazepan-1-yl)-propoxy]-quinazolin-4-yl}-piperidine-1-carboxylic acid (4-morpholin-4-yl-phenyl)-amide] |
| 13 nM | CC(C)Oc1ccc(NC(=O)N2CCC(c3ncnc4cc(N5CCN(C)CC5)ccc34)CC2)cc1 [Example 103, 4-[7-(4-Methyl-piperazin-1-yl)-quinazolin-4-yl]-piperidine-1-carboxylic acid (4-isopropoxy-phenyl)-amide] |
| 53 nM | CN1CCC(COc2ccc3c(C4CCN(C(=O)Nc5ccc(N6CCOCC6)nc5)CC4)ncnc3c2)CC1 [Example 108, 4-[7-(1-Methyl-piperidin-4-ylmethoxy)-quinazolin-4-yl]-piperidine-1-carboxylic acid (6-morpholin-4-yl-pyridin-3-yl)-amide] |
